Experiment [1] has as its target Histone-lysine N-methyltransferase SMYD3 (Homo sapiens, UniProt Q9H7B4). In words: Affinity Biochemical interaction: (inhibition of methylation activity, scintillation proximity assay utilizing [3 H]-SAM with specific product capture of biotin-tagged peptides on streptavidin SPA beads) EUB0002243aAD SMYD3. In kind it is functional. Details: mode of action Inhibitor, recommended concentration 1 uM. (Scintillation proximity formats need no separation of bound from free tracer.)

Experiment [2] concerns the target Cathepsin B (Homo sapiens, UniProt P07858). In words: Affinity Biochemical interaction: (Colorimetric assay, lysis of casein substrate and analysis of protease inhibition by reading wavelength at 595 nm) EUB0002195a CTSB. The class given is functional. Details: mode of action Inhibitor, recommended concentration 1 uM.
Experiment [3] addresses Procathepsin L (Homo sapiens, UniProt P07711). In words: Affinity Biochemical interaction: (Colorimetric assay, lysis of casein substrate and analysis of protease inhibition by reading wavelength at 595 nm) EUB0002195a CTSL. Details: mode of action Inhibitor, recommended concentration 1 uM. The class given is functional.
Experiment [4] concerns the target Calpain-2 catalytic subunit (Homo sapiens, UniProt P17655). Kind of experiment: Affinity Biochemical interaction: (Colorimetric assay, lysis of casein substrate and analysis of protease inhibition by reading wavelength at 595 nm) EUB0002195a CAPN2. Details: mode of action Inhibitor, recommended concentration 1 uM. In kind it is functional.
Experiment [5] addresses Caspase-9 (Homo sapiens, UniProt P55211). In words: Affinity Biochemical interaction: (peptide substrate detection probe bound to magnetic beads, detection of liberated fluorophores) EUB0002203aAD CASP9. The class given is functional. Details: mode of action Inhibitor, recommended concentration 1 uM.
Experiment [6] addresses T1, Histone acetyltransferase KAT7 (Homo sapiens, UniProt O95251). In words: Affinity Biochemical interaction: (AlphaScreen) EUB0001094a MYST2. Details: mode of action Inhibitor, recommended concentration 1 uM. The class given is functional. (Alpha assays give light when donor and acceptor beads are brought close together.)
For experiment [7], the target named is T2, Histone acetyltransferase KAT6A (Homo sapiens, UniProt Q92794). Kind of experiment: Affinity Biochemical interaction: (AlphaScreen) EUB0001094a MYST3. In kind it is functional. Details: mode of action Inhibitor, recommended concentration 1 uM.
In experiment [8] the target is T2, Histone acetyltransferase KAT6A. Kind of experiment: Affinity Biochemical interaction: (SPR) EUB0001094a MYST3. Details: mode of action Inhibitor, recommended concentration 1 uM.
The target of experiment [9] is T1, Histone acetyltransferase KAT7. In words: Affinity Biochemical interaction: (SPR) EUB0001094a MYST2. Further details: mode of action Inhibitor, recommended concentration 1 uM.
Experiment [10] is described as follows: Affinity Biochemical interaction: (enzymatic assay (fluorogenic substrate cleavage)) EUB0002134a CAPN2.
In experiment [11] the target is Caspase-5 (Homo sapiens, UniProt P51878). Kind of experiment: Affinity Biochemical interaction: (enzymatic assay (fluorogenic substrate cleavage)) EUB0002202a CASP5. In kind it is functional. Details: mode of action Inhibitor, recommended concentration 1 uM.
Experiment [12] has as its target T3, Caspase-3 (Homo sapiens, UniProt P42574).
T3 sequence (P42574 whole entry): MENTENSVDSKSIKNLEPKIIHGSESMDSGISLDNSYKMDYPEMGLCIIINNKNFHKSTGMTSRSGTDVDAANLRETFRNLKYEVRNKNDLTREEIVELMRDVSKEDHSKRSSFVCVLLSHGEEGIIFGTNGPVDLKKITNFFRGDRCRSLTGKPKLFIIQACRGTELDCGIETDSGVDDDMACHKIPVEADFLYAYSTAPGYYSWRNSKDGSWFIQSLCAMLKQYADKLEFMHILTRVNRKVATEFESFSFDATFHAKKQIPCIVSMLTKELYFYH
In words: Affinity Biochemical interaction: (enzymatic assay (fluorogenic substrate cleavage)) EUB0002175aAD CASP3. In kind it is functional. Details: mode of action Inhibitor, recommended concentration 1 uM.

Experiment [13] is described as follows: Affinity Biochemical interaction: (inhibition of enzyme activity, competitive binding assay (fluorescent substrate cleavage)) EUB0002137aAD CAPN2.
In experiment [14] the target is Protein arginine N-methyltransferase 7 (Homo sapiens, UniProt Q9NVM4). In words: Affinity Biochemical interaction: (SPR) EUB0002223a PRMT7. Further details: mode of action Inhibitor, recommended concentration 1 uM.
The target in experiment [15] is Protein arginine N-methyltransferase 5 (Homo sapiens, UniProt O14744). In words: Affinity Biochemical interaction: (SPR) EUB0002223a PRMT5. Further details: mode of action Inhibitor, recommended concentration 1 uM.
Experiment [16] deals with T4, WD repeat-containing protein 5 (Homo sapiens, UniProt P61964). Kind of experiment: Affinity Biochemical interaction: (TR-FRET) EUB0002166aAD WDR5. Details: mode of action Inhibitor, recommended concentration 1 uM. In kind it is functional. (In general: Time-resolved FRET reads energy transfer from a long-lived donor to a nearby acceptor.)
Experiment [17] concerns the target T4, WD repeat-containing protein 5. In words: Affinity Biochemical interaction: (Fluorescence polarisation anisotropy) EUB0002166aAD WDR5. In kind it is functional. Further details: mode of action Inhibitor, recommended concentration 1 uM.
Experiment [18] addresses T3, Caspase-3. In words: (§1) Affinity Biochemical interaction: (enzymatic assay (fluorogenic substrate cleavage)) EUB0002178aAD CASP3. Further details: mode of action Inhibitor, recommended concentration 1 uM. The class given is functional.
For experiment [19], the target named is T3, Caspase-3. The experiment is described as §1. In kind it is functional. Details: mode of action Inhibitor, recommended concentration 1 uM. This is another data set of the same source.

The results in this text go back to ChEMBL document CHEMBL5723035, “Affinity Biochemical Literature for EUbOPEN Chemogenomic Library” (2024).

SMILES strings stand for the structures. Residues, ends and D or L forms follow the SMILES beside them. *: point of attachment. Cbz = O=C(OCc1ccccc1)*; CH2Cl = ClC*; CH2F = FC*

T1 sequence (O95251 whole entry): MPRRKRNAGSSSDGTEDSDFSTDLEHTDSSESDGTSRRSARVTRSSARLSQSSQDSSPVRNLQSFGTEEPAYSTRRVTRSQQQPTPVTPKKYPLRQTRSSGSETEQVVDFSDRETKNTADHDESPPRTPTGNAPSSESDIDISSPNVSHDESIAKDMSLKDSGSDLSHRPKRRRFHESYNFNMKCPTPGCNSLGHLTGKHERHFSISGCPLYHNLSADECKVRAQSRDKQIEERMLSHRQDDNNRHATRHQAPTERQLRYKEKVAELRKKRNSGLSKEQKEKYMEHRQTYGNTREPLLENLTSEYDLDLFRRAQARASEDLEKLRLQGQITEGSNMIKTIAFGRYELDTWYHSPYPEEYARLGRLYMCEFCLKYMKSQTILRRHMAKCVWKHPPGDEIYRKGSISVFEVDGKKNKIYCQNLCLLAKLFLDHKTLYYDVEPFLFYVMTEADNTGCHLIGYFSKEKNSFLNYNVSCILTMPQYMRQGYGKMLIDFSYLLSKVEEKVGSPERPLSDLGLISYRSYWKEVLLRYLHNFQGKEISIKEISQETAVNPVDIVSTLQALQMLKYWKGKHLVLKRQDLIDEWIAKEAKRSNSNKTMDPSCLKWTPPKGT
T2 sequence (Q92794 whole entry): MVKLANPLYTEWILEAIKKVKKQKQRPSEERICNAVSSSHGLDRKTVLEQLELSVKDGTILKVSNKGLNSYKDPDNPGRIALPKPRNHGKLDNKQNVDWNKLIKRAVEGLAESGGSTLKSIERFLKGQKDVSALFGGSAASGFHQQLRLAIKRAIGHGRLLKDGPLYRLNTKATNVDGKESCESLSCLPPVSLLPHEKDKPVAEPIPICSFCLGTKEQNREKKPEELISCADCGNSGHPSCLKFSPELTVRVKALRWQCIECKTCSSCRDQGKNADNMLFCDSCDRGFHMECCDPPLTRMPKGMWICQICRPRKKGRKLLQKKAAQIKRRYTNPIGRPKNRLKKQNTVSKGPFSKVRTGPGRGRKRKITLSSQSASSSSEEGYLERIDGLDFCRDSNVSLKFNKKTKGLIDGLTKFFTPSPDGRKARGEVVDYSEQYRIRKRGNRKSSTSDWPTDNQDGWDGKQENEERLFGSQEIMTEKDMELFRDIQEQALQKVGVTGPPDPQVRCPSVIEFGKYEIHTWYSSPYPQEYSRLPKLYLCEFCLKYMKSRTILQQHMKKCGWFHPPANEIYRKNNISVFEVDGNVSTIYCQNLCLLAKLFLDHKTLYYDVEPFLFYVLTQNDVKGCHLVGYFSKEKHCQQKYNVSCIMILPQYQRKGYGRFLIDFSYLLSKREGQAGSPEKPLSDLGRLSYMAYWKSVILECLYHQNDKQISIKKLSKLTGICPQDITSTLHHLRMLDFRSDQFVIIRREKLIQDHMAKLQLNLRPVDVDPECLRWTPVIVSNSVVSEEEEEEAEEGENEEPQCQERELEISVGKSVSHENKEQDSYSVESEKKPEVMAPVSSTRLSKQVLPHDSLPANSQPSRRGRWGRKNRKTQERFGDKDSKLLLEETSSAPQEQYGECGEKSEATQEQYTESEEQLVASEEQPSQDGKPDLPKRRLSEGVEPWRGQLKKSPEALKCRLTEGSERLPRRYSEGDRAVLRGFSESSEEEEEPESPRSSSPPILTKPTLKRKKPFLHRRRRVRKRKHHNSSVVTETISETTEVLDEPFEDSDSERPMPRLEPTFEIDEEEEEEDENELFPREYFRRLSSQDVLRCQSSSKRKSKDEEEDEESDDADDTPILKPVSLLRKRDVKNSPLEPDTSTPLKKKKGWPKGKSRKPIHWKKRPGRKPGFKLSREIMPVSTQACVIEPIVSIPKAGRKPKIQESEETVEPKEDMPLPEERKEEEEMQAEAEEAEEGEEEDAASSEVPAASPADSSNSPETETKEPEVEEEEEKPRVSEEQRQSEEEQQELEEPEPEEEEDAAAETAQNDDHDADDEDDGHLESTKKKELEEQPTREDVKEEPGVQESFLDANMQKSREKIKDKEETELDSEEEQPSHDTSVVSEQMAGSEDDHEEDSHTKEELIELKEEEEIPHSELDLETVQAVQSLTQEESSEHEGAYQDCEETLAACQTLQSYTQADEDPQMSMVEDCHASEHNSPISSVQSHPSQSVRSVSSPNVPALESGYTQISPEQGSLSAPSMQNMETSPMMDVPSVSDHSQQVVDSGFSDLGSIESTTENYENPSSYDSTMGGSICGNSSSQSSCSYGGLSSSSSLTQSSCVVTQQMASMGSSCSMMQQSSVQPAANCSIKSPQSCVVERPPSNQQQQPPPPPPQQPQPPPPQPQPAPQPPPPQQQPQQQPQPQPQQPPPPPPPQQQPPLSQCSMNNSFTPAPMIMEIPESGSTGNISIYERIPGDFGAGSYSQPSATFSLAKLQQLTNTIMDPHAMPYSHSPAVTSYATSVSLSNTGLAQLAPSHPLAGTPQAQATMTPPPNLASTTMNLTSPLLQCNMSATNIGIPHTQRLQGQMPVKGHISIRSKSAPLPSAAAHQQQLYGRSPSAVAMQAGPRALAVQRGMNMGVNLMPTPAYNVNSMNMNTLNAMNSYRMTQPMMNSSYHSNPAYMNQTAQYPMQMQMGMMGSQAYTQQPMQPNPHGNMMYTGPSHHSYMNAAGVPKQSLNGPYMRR
Sequence of Histone-lysine N-methyltransferase SMYD3 (Q9H7B4 whole entry): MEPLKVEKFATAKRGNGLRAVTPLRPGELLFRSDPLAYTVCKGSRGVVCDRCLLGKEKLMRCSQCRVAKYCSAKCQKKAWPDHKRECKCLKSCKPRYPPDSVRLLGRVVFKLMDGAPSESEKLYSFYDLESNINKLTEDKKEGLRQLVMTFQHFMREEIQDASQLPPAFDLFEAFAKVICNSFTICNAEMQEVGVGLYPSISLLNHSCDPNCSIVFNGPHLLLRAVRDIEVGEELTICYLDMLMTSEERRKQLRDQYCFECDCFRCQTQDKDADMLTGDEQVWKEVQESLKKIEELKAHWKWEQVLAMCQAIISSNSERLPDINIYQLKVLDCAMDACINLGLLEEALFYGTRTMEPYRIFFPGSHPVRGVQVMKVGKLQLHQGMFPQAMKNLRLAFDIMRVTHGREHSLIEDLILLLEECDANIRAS
Sequence of Caspase-5 (P51878 137-327 limits assumed): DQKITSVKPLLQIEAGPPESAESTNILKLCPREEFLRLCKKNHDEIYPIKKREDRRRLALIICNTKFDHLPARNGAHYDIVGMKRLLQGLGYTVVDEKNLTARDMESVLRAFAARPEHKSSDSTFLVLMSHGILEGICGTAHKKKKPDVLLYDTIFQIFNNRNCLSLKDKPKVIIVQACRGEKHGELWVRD
Sequence of Caspase-5 (P51878 347-434 limits assumed): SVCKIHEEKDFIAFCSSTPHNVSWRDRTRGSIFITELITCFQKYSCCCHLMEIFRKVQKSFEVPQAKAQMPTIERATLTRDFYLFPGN
Sequence of Calpain-2 catalytic subunit (P17655 whole entry): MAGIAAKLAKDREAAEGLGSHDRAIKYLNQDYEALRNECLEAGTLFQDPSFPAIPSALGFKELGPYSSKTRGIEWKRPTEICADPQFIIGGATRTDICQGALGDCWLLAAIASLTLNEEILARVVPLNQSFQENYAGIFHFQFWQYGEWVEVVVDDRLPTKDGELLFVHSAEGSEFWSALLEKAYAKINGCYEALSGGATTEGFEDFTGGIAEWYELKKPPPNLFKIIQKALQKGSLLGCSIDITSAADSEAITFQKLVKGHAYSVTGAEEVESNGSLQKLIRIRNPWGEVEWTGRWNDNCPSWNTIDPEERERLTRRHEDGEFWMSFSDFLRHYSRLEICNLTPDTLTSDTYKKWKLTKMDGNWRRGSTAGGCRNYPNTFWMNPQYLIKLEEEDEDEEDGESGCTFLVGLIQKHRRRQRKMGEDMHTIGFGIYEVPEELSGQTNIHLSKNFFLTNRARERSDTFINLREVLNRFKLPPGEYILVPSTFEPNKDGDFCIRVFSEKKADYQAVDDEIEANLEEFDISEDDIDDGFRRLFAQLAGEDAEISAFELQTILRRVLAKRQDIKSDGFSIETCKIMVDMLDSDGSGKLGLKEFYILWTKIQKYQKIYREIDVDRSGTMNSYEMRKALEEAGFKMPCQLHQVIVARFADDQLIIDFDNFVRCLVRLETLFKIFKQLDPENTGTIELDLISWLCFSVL
Sequence of Protein arginine N-methyltransferase 7 (Q9NVM4 whole entry): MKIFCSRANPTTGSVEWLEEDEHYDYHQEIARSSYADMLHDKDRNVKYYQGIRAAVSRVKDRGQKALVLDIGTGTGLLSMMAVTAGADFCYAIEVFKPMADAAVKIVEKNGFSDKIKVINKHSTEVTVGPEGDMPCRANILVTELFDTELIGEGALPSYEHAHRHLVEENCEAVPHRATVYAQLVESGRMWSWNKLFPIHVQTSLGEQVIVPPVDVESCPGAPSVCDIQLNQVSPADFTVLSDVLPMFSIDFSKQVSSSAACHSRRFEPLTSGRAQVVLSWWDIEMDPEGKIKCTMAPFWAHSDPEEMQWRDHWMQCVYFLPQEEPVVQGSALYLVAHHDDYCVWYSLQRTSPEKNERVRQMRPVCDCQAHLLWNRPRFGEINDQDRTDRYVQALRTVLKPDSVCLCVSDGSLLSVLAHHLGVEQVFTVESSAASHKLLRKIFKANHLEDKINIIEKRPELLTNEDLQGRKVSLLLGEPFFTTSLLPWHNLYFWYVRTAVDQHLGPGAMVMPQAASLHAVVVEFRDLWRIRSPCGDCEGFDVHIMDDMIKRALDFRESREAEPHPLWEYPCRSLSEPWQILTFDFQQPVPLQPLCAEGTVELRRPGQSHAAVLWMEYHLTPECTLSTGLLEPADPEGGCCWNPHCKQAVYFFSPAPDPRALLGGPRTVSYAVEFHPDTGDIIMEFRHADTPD
Sequence of Procathepsin L (P07711 whole entry): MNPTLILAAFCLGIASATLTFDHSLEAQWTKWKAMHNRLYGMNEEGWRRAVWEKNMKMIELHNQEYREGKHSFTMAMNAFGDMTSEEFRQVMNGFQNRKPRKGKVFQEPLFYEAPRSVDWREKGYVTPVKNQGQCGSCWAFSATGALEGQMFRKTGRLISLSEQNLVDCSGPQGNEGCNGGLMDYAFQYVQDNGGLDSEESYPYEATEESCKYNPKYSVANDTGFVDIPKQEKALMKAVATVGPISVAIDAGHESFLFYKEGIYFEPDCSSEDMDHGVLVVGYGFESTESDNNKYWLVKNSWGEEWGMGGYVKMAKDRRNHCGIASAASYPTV

Broadly, the IC50 is the concentration that gives 50% inhibition. As a reminder, the Ki is a dissociation constant, usually derived from enzyme kinetics or from competition with a known ligand. For the molecule `CN(C)CCCN(CC[C@H](N)C(=O)O)C[C@H]1O[C@@H](n2cnc3c(N)ncnc32)[C@H](O)[C@@H]1O`, in experiment [1], it took 130 nM to reach half-maximal inhibition (IC50) and affinity was put at a Ki of 14 nM.
Take `CC(C)C[C@@H](C=O)NC(=O)[C@@H](NS(=O)(=O)c1ccc(F)cc1)C(C)C`: the IC50 amounted to 15 nM in experiment [2], 1.6 nM in [3] and 78 nM in [4].
Take `CC(=O)N[C@@H](CC(C)C)C(=O)N[C@@H](CCC(=O)O)C(=O)N[C@@H](Cc1cnc[nH]1)C(=O)N[C@@H](CC(=O)O)C(=O)CCl` (Ac-LEHD-CH2Cl): in experiment [5], the concentration for half-maximal inhibition (IC50) amounted to 72.8 nM.
The Kd is the concentration at which binding is half-saturated. Low readings indicate a tighter complex, high ones a looser complex. On to `Cc1cc(-c2ccccc2)cc(C(=O)NNS(=O)(=O)c2cccc(O)c2)c1F`, for which the figures for the half-inhibitory concentration (IC50) in experiment [6] and in experiment [7] were 30 nM and 17 nM, respectively. Further, the results for the Kd in experiment [8] and in [9] were 7 nM and 34 nM, respectively.
For the molecule `CCCC(NC(=O)C(CC(C)C)NC(=O)OCc1ccccc1)C(=O)C(=O)NCc1ccccn1` (racemic), affinity in experiment [10] was put at a Ki of 120 nM. This lies in the sub-micromolar range.
For `COC(=O)CC[C@H](NC(=O)[C@H](Cc1c[nH]c2ccccc12)NC(=O)OCc1ccccc1)C(=O)N[C@@H](Cc1cnc[nH]1)C(=O)N[C@@H](CC(=O)OC)C(=O)CF` (Cbz-WE(OMe)HD(OMe)-CH2F), in experiment [11], inhibition was half-maximal at 340 nM (IC50).
As to `CSCC[C@H](NC(=O)[C@H](CC(=O)O)NC(C)=O)C(=O)N[C@@H](CCC(N)=O)C(=O)N[C@H](C=O)CC(=O)O` (Ac-DMQD-aldehyde), the inhibitory constant (Ki) in experiment [12] was found to be 13.3 nM.
`CCC(NC(=O)C(CC(C)C)NC(=O)OCc1ccccc1)C(=O)C(=O)NCCCN1CCOCC1` (stereo not given) gave a Ki in experiment [13] of 41 nM.
With `CCNC(=O)NCCSC[C@H]1O[C@@H](n2cnc3c(N)ncnc32)[C@H](O)[C@@H]1O`, the figures for the 50% inhibitory concentration (IC50) in experiment [14] and in [15] were 37000 nM and 25000 nM, respectively.
As for `Cc1nc(F)ccc1-c1cc(Cn2ccn(C)c2=N)cc(C(=O)NCc2ccc(Cl)c(Cl)c2)c1`, the inhibition constant (Ki) in [16] is 0.106 nM; in experiment [17], below 0.001 nM.
With `CC[C@H](C)[C@H](NC(=O)[C@H](CCC(=O)O)NC(=O)[C@@H](NC(C)=O)C(C)C)C(=O)N[C@H](C=O)CC(=O)O` (Ac-VEID-aldehyde), the results for the 50% inhibitory concentration (IC50) in experiment [18] and in [19] were 480 nM and 13.6 nM, respectively.
